# According to publication PMC5218480 (PLoS ONE, 2017):
# System: MV-4-11 cells
# Test: Gene expression microarray analysis (Affymetrix PrimeView) and GSEA
# Assay type: cell-based, human
# Design: RFU PODN (11730768_x_at) / Fold change /veh PODN (11730768_x_at) / RFU LINC00158 (11744669_a_at) / Fold change /veh LINC00158 (11744669_a_at) / RFU DUSP10 (11751237_a_at) / Fold change /veh DUSP10 (11751237_a_at) / RFU ID3 (11757404_x_at) / Fold change /veh ID3 (11757404_x_at) / RFU PLEKHG5 (11737974_s_at) / Fold change /veh PLEKHG5 (11737974_s_at) / RFU LRRC4B (11730491_at) / Fold change /veh LRRC4B (11730491_at) / RFU GIMAP4 (11747438_a_at) / Fold change /veh GIMAP4 (11747438_a_at) / RFU KRT8 (11758183_x_at) / Fold change /veh KRT8 (11758183_x_at) / RFU CNN1 (11734310_a_at) / Fold change /veh CNN1 (11734310_a_at) / RFU VPS37D (11726825_at) / Fold change /veh VPS37D (11726825_at) / RFU C10orf10 (11716522_x_at) / Fold change /veh C10orf10 (11716522_x_at) / RFU KIR2DL2 /// KIR2DL4 /// KIR2DL5A /// KIR2DL5B /// KIR2DS1 /// KIR2DS2 /// KIR2DS3 /// KIR2DS4 /// KIR3DL3 /// KIR3DL3 /// KIR3DS1 (11738374_at) / Fold change /veh KIR2DL2 /// KIR2DL4 /// KIR2DL5A /// KIR2DL5B /// KIR2DS1 /// KIR2DS2 /// KIR2DS3 /// KIR2DS4 /// KIR3DL3 /// KIR3DL3 /// KIR3DS1 (11738374_at) / RFU C1QL1 (11718748_at) / Fold change /veh C1QL1 (11718748_at) / RFU TMPRSS4 (11747572_a_at) / Fold change /veh TMPRSS4 (11747572_a_at) / RFU HAMP (11756126_x_at) / Fold change /veh HAMP (11756126_x_at) / RFU RNFT2 (11725882_a_at) / Fold change /veh RNFT2 (11725882_a_at) / RFU NR4A2 (11747474_a_at) / Fold change /veh NR4A2 (11747474_a_at) / RFU ABCC12 (11746883_a_at) / Fold change /veh ABCC12 (11746883_a_at) / RFU TMEM136 (11760407_x_at) / Fold change /veh TMEM136 (11760407_x_at) / RFU CLDN22 /// WWC2 (11732394_at) / Fold change /veh CLDN22 /// WWC2 (11732394_at) / RFU HLA-DPB1 (11760878_x_at) / Fold change /veh HLA-DPB1 (11760878_x_at) / RFU SPINT1 (11716480_a_at) / Fold change /veh SPINT1 (11716480_a_at) / RFU GAP43 (11754022_s_at) / Fold change /veh GAP43 (11754022_s_at) / RFU A4GNT (11735810_at) / Fold change /veh A4GNT (11735810_at) / RFU PRB3 (11715151_x_at) / Fold change /veh PRB3 (11715151_x_at) / RFU TUBB4B (11761932_at) / Fold change /veh TUBB4B (11761932_at) / RFU CAPN14 (11732068_a_at) / Fold change /veh CAPN14 (11732068_a_at) / RFU TMCC2 (11721928_a_at) / Fold change /veh TMCC2 (11721928_a_at) / RFU IRGQ (11745062_a_at) / Fold change /veh IRGQ (11745062_a_at) / RFU FAM174B (11720279_a_at) / Fold change /veh FAM174B (11720279_a_at) / RFU TMPRSS4 (11748680_a_at) / Fold change /veh TMPRSS4 (11748680_a_at) / RFU FAM212B (11763350_a_at) / Fold change /veh FAM212B (11763350_a_at) / RFU PLEKHG5 (11743358_a_at) / Fold change /veh PLEKHG5 (11743358_a_at) / RFU ZSCAN30 (11745921_a_at) / Fold change /veh ZSCAN30 (11745921_a_at) / RFU CMKLR1 (11741424_a_at) / Fold change /veh CMKLR1 (11741424_a_at) / RFU LOC101060620 /// MAPK8IP1 (11723275_at) / Fold change /veh LOC101060620 /// MAPK8IP1 (11723275_at) / RFU SPTSSB (11747773_x_at) / Fold change /veh SPTSSB (11747773_x_at) / RFU PRSS12 (11739890_at) / Fold change /veh PRSS12 (11739890_at) / RFU BIN1 (11741810_x_at) / Fold change /veh BIN1 (11741810_x_at) / RFU WNT11 (11732464_a_at) / Fold change /veh WNT11 (11732464_a_at) / RFU C10orf10 (11716521_a_at) / Fold change /veh C10orf10 (11716521_a_at) / RFU C5orf56 (11738089_at) / Fold change /veh C5orf56 (11738089_at) / RFU CYB561 (11721691_x_at) / Fold change /veh CYB561 (11721691_x_at) / RFU ANKRD19P (11752326_a_at) / Fold change /veh ANKRD19P (11752326_a_at) / RFU OR2T12 /// OR2T33 /// OR2T8 (11738714_s_at) / Fold change /veh OR2T12 /// OR2T33 /// OR2T8 (11738714_s_at) / RFU VCAN (11748164_a_at) / Fold change /veh VCAN (11748164_a_at) / RFU JSRP1 (11732532_at) / Fold change /veh JSRP1 (11732532_at) / RFU KRTAP10-11 (11738290_x_at) / Fold change /veh KRTAP10-11 (11738290_x_at) / RFU MYO3A (11730013_a_at) / Fold change /veh MYO3A (11730013_a_at) / RFU EBF3 (11725865_a_at) / Fold change /veh EBF3 (11725865_a_at) / RFU CAMK2N1 (11719241_x_at) / Fold change /veh CAMK2N1 (11719241_x_at) / RFU C5orf56 (11738088_a_at) / Fold change /veh C5orf56 (11738088_a_at) / RFU OLFML3 (11715873_a_at) / Fold change /veh OLFML3 (11715873_a_at) / RFU LOC100653217 /// NTM (11731650_a_at) / Fold change /veh LOC100653217 /// NTM (11731650_a_at) / RFU MAPK11 (11762145_a_at) / Fold change /veh MAPK11 (11762145_a_at) / RFU FIZ1 (11724087_x_at) / Fold change /veh FIZ1 (11724087_x_at) / RFU OASL (11726364_x_at) / Fold change /veh OASL (11726364_x_at) / RFU SOX15 (11748057_x_at) / Fold change /veh SOX15 (11748057_x_at) / RFU CD79A (11719716_a_at) / Fold change /veh CD79A (11719716_a_at) / RFU HIST1H1D (11736915_at) / Fold change /veh HIST1H1D (11736915_at) / RFU CASKIN2 (11723855_a_at) / Fold change /veh CASKIN2 (11723855_a_at) / RFU LOC730098 (11760151_x_at) / Fold change /veh LOC730098 (11760151_x_at) / RFU OR4N2 (11742367_at) / Fold change /veh OR4N2 (11742367_at) / RFU PRRT2 (11749266_a_at) / Fold change /veh PRRT2 (11749266_a_at) / RFU SNX32 (11753110_a_at) / Fold change /veh SNX32 (11753110_a_at) / RFU CDHR5 (11726645_a_at) / Fold change /veh CDHR5 (11726645_a_at) / RFU RCAN1 (11760418_a_at) / Fold change /veh RCAN1 (11760418_a_at) / RFU FAM167A (11723789_a_at) / Fold change /veh FAM167A (11723789_a_at) / RFU FAM26E (11764081_at) / Fold change /veh FAM26E (11764081_at) / RFU ISYNA1 (11749810_s_at) / Fold change /veh ISYNA1 (11749810_s_at) / RFU ACY1 (11761880_at) / Fold change /veh ACY1 (11761880_at) / RFU 11764098_at / Fold change /veh 11764098_at / RFU SAMD14 (11745864_x_at) / Fold change /veh SAMD14 (11745864_x_at) / RFU NPB (11741838_a_at) / Fold change /veh NPB (11741838_a_at) / RFU TMPRSS6 (11731388_a_at) / Fold change /veh TMPRSS6 (11731388_a_at) / RFU KRTAP10-2 (11738614_at) / Fold change /veh KRTAP10-2 (11738614_at) / RFU ARHGAP8 /// PRR5-ARHGAP8 (11727945_x_at) / Fold change /veh ARHGAP8 /// PRR5-ARHGAP8 (11727945_x_at) / RFU KRTAP5-7 /// NADSYN1 (11734609_at) / Fold change /veh KRTAP5-7 /// NADSYN1 (11734609_at) / RFU RASL12 (11751679_a_at) / Fold change /veh RASL12 (11751679_a_at) / RFU CDKN2B (11736163_a_at) / Fold change /veh CDKN2B (11736163_a_at) / RFU PRF1 (11729649_at) / Fold change /veh PRF1 (11729649_at) / RFU, ZNF638 /// ZNF638-IT1 / Fold change vs veh, ZNF638 /// ZNF638-IT1 / RFU, PANK3 / Fold change vs veh, PANK3 / RFU, SH3YL1 / Fold change vs veh, SH3YL1 / RFU, ZEB2 / Fold change vs veh, ZEB2 / RFU, NRIP1 / Fold change vs veh, NRIP1 / RFU, PTTG1IP / Fold change vs veh, PTTG1IP / RFU, CAPN2 / Fold change vs veh, CAPN2 / RFU, MED14 / Fold change vs veh, MED14 / RFU, SNORA58 / Fold change vs veh, SNORA58 / RFU, C1orf63 / Fold change vs veh, C1orf63 / RFU, LRRFIP1 / Fold change vs veh, LRRFIP1 / RFU, NDUFAF7 / Fold change vs veh, NDUFAF7 / RFU, SLC12A2 / Fold change vs veh, SLC12A2 / RFU, IBTK / Fold change vs veh, IBTK / RFU, ESF1 / Fold change vs veh, ESF1 / Fold change vs veh, TMEM50B / RFU, TAOK1 / Fold change vs veh, TAOK1 / RFU, ACBD3 / Fold change vs veh, ACBD3 / RFU, TMA16 / Fold change vs veh, TMA16 / RFU, RWDD3 / Fold change vs veh, RWDD3 / RFU, BCAT1 / Fold change vs veh, BCAT1 / RFU, EDEM3 / Fold change vs veh, EDEM3 / RFU, TMEM33 / Fold change vs veh, TMEM33 / RFU, WDR75 / Fold change vs veh, WDR75 / RFU, AHCTF1 / Fold change vs veh, AHCTF1 / RFU, TFRC / Fold change vs veh, TFRC / RFU, ZDHHC17 / Fold change vs veh, ZDHHC17 / RFU, NOM1 / Fold change vs veh, NOM1 / RFU, ARL8B / Fold change vs veh, ARL8B / RFU, ZBTB11 / Fold change vs veh, ZBTB11 / RFU, TAMM41 / Fold change vs veh, TAMM41 / RFU, KIAA1704 /// LOC100996395 / Fold change vs veh, KIAA1704 /// LOC100996395 / RFU, ING1 / Fold change vs veh, ING1 / RFU, TRMT61B / Fold change vs veh, TRMT61B / RFU, FUBP3 / Fold change vs veh, FUBP3 / RFU, TP53 / Fold change vs veh, TP53 / RFU, TNKS2 / Fold change vs veh, TNKS2 / RFU, ZFP14 / Fold change vs veh, ZFP14 / RFU, ACTR2 / Fold change vs veh, ACTR2 / RFU, PPP3R1 / Fold change vs veh, PPP3R1 / RFU, PIK3R1 / Fold change vs veh, PIK3R1 / RFU, HNRNPA1 / Fold change vs veh, HNRNPA1 / RFU, RNF170 / Fold change vs veh, RNF170 / RFU, ZNF28 / Fold change vs veh, ZNF28 / RFU, RNGTT / Fold change vs veh, RNGTT / RFU, OGT / Fold change vs veh, OGT / RFU, BRD1 / Fold change vs veh, BRD1 / RFU, MARS / Fold change vs veh, MARS / RFU, ZNF655 / Fold change vs veh, ZNF655 / RFU, FAHD1 / Fold change vs veh, FAHD1 / RFU, BDP1 / Fold change vs veh, BDP1 / RFU, LRRCC1 / Fold change vs veh, LRRCC1 / RFU, ARID1A / Fold change vs veh, ARID1A / RFU, ZNF146 / Fold change vs veh, ZNF146 / RFU, ZNF330 / Fold change vs veh, ZNF330 / RFU, GPN3 / Fold change vs veh, GPN3 / RFU, C9orf123 / Fold change vs veh, C9orf123 / RFU, N4BP2L2 / Fold change vs veh, N4BP2L2 / RFU, ARFIP1 / Fold change vs veh, ARFIP1 / RFU, FAM179B / Fold change vs veh, FAM179B / RFU, BCL10 / Fold change vs veh, BCL10 / RFU, UHRF1BP1L / Fold change vs veh, UHRF1BP1L / RFU, BET1 / Fold change vs veh, BET1 / RFU, CNOT2 / Fold change vs veh, CNOT2 / RFU, ZNF268 / Fold change vs veh, ZNF268 / Fold change vs veh, ZNF507 / RFU, DGCR2 / Fold change vs veh, DGCR2 / RFU, WDSUB1 / Fold change vs veh, WDSUB1 / Fold change vs veh, HSP90B1 /// MIR3652 / RFU, ADSS / Fold change vs veh, ADSS / RFU, GK / Fold change vs veh, GK / RFU, ZNF148 / Fold change vs veh, ZNF148 / RFU, TAF9 / Fold change vs veh, TAF9 / RFU, SLC1A5 / Fold change vs veh, SLC1A5 / RFU, SLMO2 / Fold change vs veh, SLMO2 / RFU, ABCC4 / Fold change vs veh, ABCC4 / RFU, LOC101060439 /// RAP1B / Fold change vs veh, LOC101060439 /// RAP1B / RFU, RFX7 / Fold change vs veh, RFX7 / RFU, GTPBP10 / Fold change vs veh, GTPBP10 / RFU, CNEP1R1 / Fold change vs veh, CNEP1R1 / RFU, BIVM-ERCC5 /// ERCC5 / Fold change vs veh, BIVM-ERCC5 /// ERCC5 / RFU, ILF3 / Fold change vs veh, ILF3 / RFU 11762660_at / Fold change /veh 11762660_at / RFU VCAN (11757783_s_at) / Fold change /veh VCAN (11757783_s_at) / RFU DDX43 (11728927_at) / Fold change /veh DDX43 (11728927_at) / RFU KRT8 (11758188_x_at) / Fold change /veh KRT8 (11758188_x_at) / RFU NKD1 (11759106_at) / Fold change /veh NKD1 (11759106_at) / RFU SRD5A1 (11742802_a_at) / Fold change /veh SRD5A1 (11742802_a_at) / RFU TPSAB1 /// TPSB2 (11721975_s_at) / Fold change /veh TPSAB1 /// TPSB2 (11721975_s_at) / RFU GSTM3 (11746129_a_at) / Fold change /veh GSTM3 (11746129_a_at) / RFU IL23R (11737362_x_at) / Fold change /veh IL23R (11737362_x_at) / RFU TMEM51 (11727254_a_at) / Fold change /veh TMEM51 (11727254_a_at) / RFU PIWIL2 (11732686_x_at) / Fold change /veh PIWIL2 (11732686_x_at) / RFU ORM1 (11744905_x_at) / Fold change /veh ORM1 (11744905_x_at) / RFU CCDC152 (11743942_at) / Fold change /veh CCDC152 (11743942_at) / RFU ECM1 (11717891_a_at) / Fold change /veh ECM1 (11717891_a_at) / RFU IL23R (11748794_a_at) / Fold change /veh IL23R (11748794_a_at) / RFU TNFAIP8L3 (11732012_x_at) / Fold change /veh TNFAIP8L3 (11732012_x_at) / RFU MBOAT4 (11741988_at) / Fold change /veh MBOAT4 (11741988_at) / RFU 11764193_at / Fold change /veh 11764193_at / RFU TMEM53 (11763286_at) / Fold change /veh TMEM53 (11763286_at) / RFU MAGEB2 (11727129_at) / Fold change /veh MAGEB2 (11727129_at) / RFU TMEM200A (11744735_a_at) / Fold change /veh TMEM200A (11744735_a_at) / RFU CCDC152 (11751479_a_at) / Fold change /veh CCDC152 (11751479_a_at) / RFU FAM211A (11726209_a_at) / Fold change /veh FAM211A (11726209_a_at) / RFU RGS16 (11746705_a_at) / Fold change /veh RGS16 (11746705_a_at) / RFU VCAN (11755009_s_at) / Fold change /veh VCAN (11755009_s_at) / RFU RHOB (11743442_s_at) / Fold change /veh RHOB (11743442_s_at) / RFU RGS16 (11720943_a_at) / Fold change /veh RGS16 (11720943_a_at) / RFU RGS16 (11720944_at) / Fold change /veh RGS16 (11720944_at) / RFU, VPS4B / Fold change vs veh, VPS4B / RFU, CREB1 / Fold change vs veh, CREB1 / RFU, DNAJC13 / Fold change vs veh, DNAJC13 / RFU, GNAQ / Fold change vs veh, GNAQ / RFU, CDK5R1 / Fold change vs veh, CDK5R1 / RFU, ZRANB3 / Fold change vs veh, ZRANB3 / RFU, CUL4A / Fold change vs veh, CUL4A / RFU, CCNY / Fold change vs veh, CCNY / RFU, UFL1 / Fold change vs veh, UFL1 / RFU, COG3 / Fold change vs veh, COG3 / RFU, DIAPH2 / Fold change vs veh, DIAPH2 / RFU, SKA2 / Fold change vs veh, SKA2 / RFU, AFF3 / Fold change vs veh, AFF3 / RFU, LMF1 / Fold change vs veh, LMF1 / RFU, IPO11 / Fold change vs veh, IPO11 / RFU, DFFB / Fold change vs veh, DFFB / RFU, FOXP1 / Fold change vs veh, FOXP1 / RFU, CARD8 / Fold change vs veh, CARD8 / RFU, STRN3 / Fold change vs veh, STRN3 / RFU, ADK / Fold change vs veh, ADK / RFU, RASSF2 / Fold change vs veh, RASSF2 / RFU, WIPF1 / Fold change vs veh, WIPF1 / RFU, LARP1B / Fold change vs veh, LARP1B / RFU, RASA1 / Fold change vs veh, RASA1 / RFU, RB1 / Fold change vs veh, RB1 / RFU, PPFIA1 / Fold change vs veh, PPFIA1 / RFU, MAT2A / Fold change vs veh, MAT2A / RFU, CCT5 / Fold change vs veh, CCT5 / RFU, WDR92 / Fold change vs veh, WDR92 / RFU, CUX1 / Fold change vs veh, CUX1 / RFU, TTC7A / Fold change vs veh, TTC7A / RFU, TMEM135 / Fold change vs veh, TMEM135 / RFU, DEPTOR / Fold change vs veh, DEPTOR / RFU, CPM / Fold change vs veh, CPM / RFU, DNAJB6 / Fold change vs veh, DNAJB6 / RFU, CACNA2D3 / Fold change vs veh, CACNA2D3 / RFU, DTX4 / Fold change vs veh, DTX4 / RFU, TFCP2 / Fold change vs veh, TFCP2 / RFU, GMCL1 /// GMCL1P1 / Fold change vs veh, GMCL1 /// GMCL1P1 / RFU, AEBP2 / Fold change vs veh, AEBP2 / RFU, SNHG1 /// SNORD22 /// SNORD25 /// SNORD26 /// SNORD27 /// SNORD28 /// SNORD29 /// SNORD31 / Fold change vs veh, SNHG1 /// SNORD22 /// SNORD25 /// SNORD26 /// SNORD27 /// SNORD28 /// SNORD29 /// SNORD31 / Fold change (Aza/veh), C12orf56 (ProbeSet 11735607_a_at) / Fold change (ACY-1035/veh), C12orf56 (ProbeSet 11735607_a_at) / Fold change (Aza/veh), FGFR1OP (ProbeSet 11751329_s_at) / Fold change (ACY-1035/veh), FGFR1OP (ProbeSet 11751329_s_at) / Fold change (Aza/veh), VPS36 (ProbeSet 11739960_a_at) / Fold change (ACY-1035/veh), VPS36 (ProbeSet 11739960_a_at) / RFU SYPL1 (11715823_x_at) / Fold change /veh SYPL1 (11715823_x_at) / RFU IGFBP7 (11715501_s_at) / Fold change /veh IGFBP7 (11715501_s_at) / RFU REEP3 (11722064_at) / Fold change /veh REEP3 (11722064_at) / RFU IGLL1 (11728026_x_at) / Fold change /veh IGLL1 (11728026_x_at): dose or concentration left out as unconfirmed
# Conditions: MV-4-11 cells, 48 hours
smiles,measurement,value
Nc1ccc(-c2cccs2)cc1NC(=O)c1ccc2c(c1)cc(C1CC1)n2CCN1CCOCC1 [ACY-1035],RFU OLFML3 (11715873_a_at),13.14 RFU
